Source: patent US11744868B1, “Inonotus obliquus dextran, preparation method and application thereof” (Jilin Agricultural University, priority 2022, dated 2023)
Counter-ions that a name gives are not always drawn.

Columns and labels:
[1] = system: AsPC-1 (human metastatic pancreatic adenocarcinoma cells) cells; assay: CCK-8 cell viability of AsPC-1 cells; format: cell-based; conditions: for Cell vitality (%): 24 h, n = 3
Description: Therapeutic effects of two drugs, Inonotus Obliquus polysaccharide and gemcitabine hydrochloride, alone and in combination, on AsPC-1 (human metastatic pancreatic adenocarcinoma cells) cells are investigated respectively. Cell culture: AsPC-1 (human metastatic pancreatic adenocarcinoma cells) cells are resuscitated in culture flasks and incubated at 37° C. in a 5% CO2 incubator; the cells are adhered to the wall and then subjected to passaging or […] operations; inoculation: when the cells are in logarithmic growth phase, they are washed twice with PBS buffer (phosphate concentration 0.01 M, pH 7.2-7.4); the cells are digested by 1 mL of 0.25% trypsin-EDTA (ethylene diamine tetraacetic acid) for 1-2 min, then 2 mL of RPMI-1640 culture solution containing 10% fetal bovine serum and 1% of double antibodies (penicillin and streptomycin) is added to terminate the digestion, followed by centrifuging at 1,000 revolutions per minute (rpm) for 3 min; then the wall-adhered cells are completely blown down and enumerated by hemocytometer plates, where the cells are inoculated in an 96-well plate in an amount of 100 μL per well, with a controlled number of 5,000 cells per well, and incubated in an incubator for 24 h. CCK-8 experiment dosing: […] Calculation of cell viability for each group:Cell viability (%)=(ODsample−ODblank)×100/(ODcontrol−ODblank)

AsPC-1 cell = conditions: 0, 200 μg/mL, 400 μg/mL, 800 ng/mL; 24 h incubation; FIG. 9
Description: 1.2 experimental cell line AsPC-1 of human metastatic pancreatic cancer is purchased from American Type Culture Collection (ATCC);
2.1 human metastatic pancreatic cancer cells are cultured in RPMI-1640 culture medium (containing penicillin 100 U/mL, streptomycin 100 U/mL and 10% fetal bovine serum) at 37° C. in a 5% CO2 constant temperature incubator, and cells of logarithmic growth phase are taken for the experiment;

| Compound | Cell vitality (%) ([1]; 0 μg/mL IOP1-1 + 20 μg/mL gemcitabine hydrochloride) | Cell vitality (%) ([1]; 400 μg/mL IOP1-1 + 0 μg/mL gemcitabine hydrochloride) | Cell vitality (%) ([1]; 800 μg/mL IOP1-1 + 0 μg/mL gemcitabine hydrochloride) | therapeutic effect on AsPC-1 tumor cells / tumor inhibition ([1]; summary in words of Table 2) | mitochondrial membrane potential (AsPC-1 cell) |
| --- | --- | --- | --- | --- | --- |
| Nc1ccn([C@@H]2O[C@H](CO)[C@@H](O)C2(F)F)c(=O)n1 [gemcitabine hydrochloride, reference compound] | 66.1 ± 5.49 |  |  |  |  |
| Inonotus Obliquus dextran [IOP1-1] |  | 78.2 ± 2.24 | 66.5 ± 4.12 | excellent | decreases as the concentration of drug administered increases |
